row,melting point,Compound
1,206 to 207 °C,"C[C@@H]1CN(CC(=O)Nc2ccccc2Cl)C[C@H](C)N1c1ncnc2sccc12 [Example 7, cis-N-(2-Chlorophenyl)-2-[3,5-dimethyl-4-(thieno[2,3-d]pyrimidin-4-yl)piperazin-1-yl]acetamide]"
2,221 to 222 °C,"C[C@@H]1CN(CC(=O)Nc2ccccc2Cl)C[C@H](C)N1c1ncnc2c1ncn2C [Example 8, cis-N-(2-Chlorophenyl)-2-[3,5-dimethyl-4-(9-methyl-9H-purin-6yl)piperazin-1-yl]acetamide]"
3,213 to 216 °C,"C[C@@H]1CN(CC(=O)Nc2cccc3cnccc23)C[C@H](C)N1c1ncnc2sccc12 [Example 9, cis-2-(3,5-Dimethyl-4-(thieno[2,3-d]pyrimidin-4-yl)piperazin-1-yl)-N-(isoquinolin-5-yl)acetamide]"
4,194 to 195 °C,C[C@@H]1CN(CC(=O)Nc2cccc3ncccc23)C[C@H](C)N1c1ncnc2sccc12 [Example 10]
5,154 to 155 °C,"C[C@@H]1CN(CC(=O)Nc2ccccc2C(F)(F)F)C[C@H](C)N1c1ncnc2sccc12 [Example 12, cis-2-(3,5-Dimethyl-4-(thieno[2,3-d]pyrimidin-4-yl)piperazin-1-yl]-N-(2-trifluoromethylphenyl)acetamide]"
6,157 to 159 °C,"Cc1cccnc1NC(=O)CN1C[C@@H](C)N(c2ncnc3sccc23)[C@@H](C)C1 [Example 13, cis-2-(3,5-Dimethyl-4-(thieno[2,3-d]pyrimidin-4-yl)piperazin-1-yl)-N-(3-methylpyridin-2-yl)acetamide]"
7,206 to 207 °C,"C[C@@H]1CN(CC(=O)Nc2nccc3ccccc23)C[C@H](C)N1c1ncnc2sccc12 [Example 14, cis-2-(3,5-Dimethyl-4-(thieno[2,3-d]pyrimidin-4-yl)piperazin-1-yl)-N-(isoquinolin-1-yl)acetamide]"
8,200 °C,"C[C@@H]1CN(CC(=O)Nc2nc3ccccc3n2C)C[C@H](C)N1c1ncnc2sccc12 [Example 49, cis-2-(3,5-Dimethyl-4-(thieno[2,3-d]pyrimidin-4-yl)piperazin-1-yl)-N-(1-methyl-1H-benzoimidazol-2-yl)acetamide]"
9,152 to 153 °C,"Cc1ccccc1NC(=O)CN1C[C@@H](C)N(S(=O)(=O)c2cccc(C#N)c2)[C@@H](C)C1 [Example 55, cis-2-[4-(3-Cyanobenzenesulphonyl)-3,5-dimethylpiperazin-1-yl]-N-(2-methylphenyl)acetamide]"
10,163 to 164 °C,"Cc1ccccc1NC(=O)CN1C[C@@H](C)N(S(=O)(=O)c2cccc([N+](=O)[O-])c2)[C@@H](C)C1 [Example 56, cis-N-(2-Methylphenyl)-2-[4-(3-nitrobenzenesulphonyl)-3,5-dimethylpiperazin-1-yl]-acetamide]"
11,202 to 203 °C,"Cc1ccccc1NC(=O)CN1C[C@@H](C)N(S(=O)(=O)c2cccc(N)c2)[C@@H](C)C1 [Example 57, cis-2-[4-(3-Aminobenzenesulphonyl)-3,5-dimethylpiperazin-1-yl]-N-(2-methylphenyl)acetamide]"
12,236 to 238 °C,"CC(=O)Nc1cccc(S(=O)(=O)N2[C@H](C)CN(CC(=O)Nc3ccccc3C)C[C@@H]2C)c1 [Example 62, cis-2-[4-(3-Acetylaminobenzenesulphonyl)-3,5-dimethylpiperazin-1-yl]-N-(2-methylphenyl)acetamide]"
13,124 to 125 °C,"Cc1ccccc1NC(=O)CN1C[C@@H](C)N(S(=O)(=O)c2cccc(C(N)=O)c2)[C@@H](C)C1 [Example 63, cis-2-[4-(3-Aminocarbonylbenzenesulphonyl)-3,5-dimethylpiperazin-1-yl]-N-(2-methylphenyl)acetamide]"
14,102 to 103 °C,"Cc1ccccc1NC(=O)CN1C[C@@H](C)N(S(=O)(=O)c2cccc(NS(C)(=O)=O)c2)[C@@H](C)C1 [Example 64, cis-2-[4-(3-Methanesulphonylaminobenzenesulphonyl)-3,5-dimethylpiperazin-1-yl]-N-(2-methylphenyl)acetamide]"
15,90 to 92 °C,"Cc1ccccc1NC(=O)CN1C[C@@H](C)N(S(=O)(=O)c2cccc(C(=O)NCCN)c2)[C@@H](C)C1 [Example 71, cis-2-[4-(2-Aminoethylaminocarbonylbenzenesulphonyl)-3,5-dimethylpiperazin-1-yl]-N-(2-methylphenyl)acetamide]"

# Continued, compound first:
row,Compound,melting point
1,Cc1ccc(NS(C)(=O)=O)cc1NC(=O)CN1CC2CCC(C1)N2c1ncnc2scnc12,145 to 187 °C
2,O=C1Cc2c(cccc2NC(=O)CN2CC3CCC(C2)N3c2ncnc3sccc23)N1,265 °C (dec.)
3,Cc1c(F)cccc1NC(=O)CN1CC2CCC(C1)N2S(=O)(=O)c1ccccc1,168 to 169 °C
4,Cc1ccccc1NC(=O)CN1CC2CCC(C1)N2S(=O)(=O)c1cccc(C#N)c1,166 to 168 °C
5,COc1cccc(S(=O)(=O)N2C3CCC2CN(CC(=O)Nc2ccccc2C)C3)c1,163 to 165 °C
6,Cc1ccccc1NC(=O)CN1CC2CCC(C1)N2S(=O)(=O)c1cccc2nonc12,167 to 168 °C
7,Cc1ccccc1NC(=O)CN1CC2CCC(C1)N2S(=O)(=O)c1cccc2nsnc12,169 to 170 °C
8,Cc1ccccc1NC(=O)CN1CC2CCC(C1)N2S(=O)(=O)c1ccc(Cl)s1,150 to 152 °C
9,Cc1ccccc1NC(=O)CN1CC2CCC(C1)N2S(=O)(=O)c1ccccc1Cl,170 to 171 °C
10,COc1ccc(Cl)cc1S(=O)(=O)N1C2CCC1CN(CC(=O)Nc1ccccc1C)C2,180 to 181 °C
11,CC(=O)Nc1ccc(S(=O)(=O)N2C3CCC2CN(CC(=O)Nc2ccccc2C)C3)cc1,205 to 206 °C
12,Cc1ccccc1NC(=O)CN1CC2CCC(C1)N2c1ncnc2scc(C)c12,199 to 200 °C
13,"Cc1cccc(C)c1NC(=O)CN1CCN(c2ncnc3sccc23)C(C)C1 (racemic) [Example 1, (±)-N-(2,6-Dimethylphenyl)-2-(3-methyl-4-(thieno[2,3-d]pyrimidin-4-yl)piperazin-1-yl)acetamide]",184 to 185 °C
14,"Cc1cccc(C)c1NC(=O)CN1C[C@@H](C)N(c2ncnc3sccc23)[C@@H](C)C1 [Example 2, cis-[2-(3,5-Dimethyl-4-(thieno[2,3-d]pyrimidin-4-yl)piperazin-1-yl)]-N-(2,6-dimethylphenyl)acetamide]",186 to 189 °C
15,"Cc1c(CO)cccc1NC(=O)CN1C[C@@H](C)N(c2ncnc3sccc23)[C@@H](C)C1 [Example 4, cis-N-[3-Hydroxymethyl-2-methylphenyl]-2-(3,5-dimethyl-4-(thieno[2,3-d]pyrimidin-4-yl)piperazin-1-yl)acetamide]",203 to 204 °C
16,"Cc1ccccc1NC(=O)CN1C[C@@H](C)N(c2ncnc3sccc23)[C@@H](C)C1 [Example 6, cis-2-[3,5-Dimethyl-4-(thieno[2,3-d]pyrimidin-4-yl)piperazin-1-yl]-N-(2-methylphenyl)acetamide]",174 to 175 °C

# Source: US6969713B2, “Piperidine and piperazine acetamide derivatives” (AstraZeneca AB, priority 1999, dated 2005)
